Reference: paper PMC4757834, “The N-terminal sequence of the extrinsic PsbP protein modulates the redox potential of Cyt b559 in photosystem II” (Scientific Reports, 2016)
Where no end group is shown, it is not given here.

Key:
[1] = system: PSII; assay: Oxygen-evolving activity of reconstituted PSII membranes (Clark-type oxygen electrode); type: biochemical, spinach; settings: NaCl-washed PSII membranes, peptide:PSII 50:1 to 200:1, 5 mM CaCl2 and 5 mM NaCl, pH 6.5, 0.4 mM DCBQ; membranes without reconstitution = 100% (251 ~ 317 μmol O2 mg Chl^-1 h^-1); n = 3
Protocol: PSII oxygen-evolving activity was measured in the presence of 5 mM CaCl2 and 5 mM NaCl, and the rate of oxygen-evolution of PSII membranes without reconstitution was set at 100% (251 ~ 317 μmol O2 mg Chl^−1 h^−1 in independent experiments); n = 3, error bars = SEM. […] Oxygen-evolving activity here was measured in the presence of 5 mM CaCl2 and 5 mM NaCl, and the rate of oxygen-evolution for the PSII membranes without reconstitution (the control) was set at 100% (261 μmol O2 mg Chl^−1 h^−1).
PSII membranes, isolated from spinach leaves[56], were treated for 30 min with the buffer containing 1.5 M NaCl on ice to remove PsbP and PsbQ. […] In the control, MES buffer, without any peptide fragments, was used. After incubation for 1 h on ice, the reconstituted PSII samples were carried forward to determine the state of their redox forms of Cyt b559, oxygen-evolving activity, FTIR analysis and TL measurements. Where indicated, PSII samples were washed once, before the analysis, with buffer (25 mM MES-NaOH, pH 6.5, 5 mM NaCl, 5 mM CaCl2, 0.4 M sucrose). The oxygen-evolving activity of each PSII membrane sample was measured in this same buffer using a Clark-type oxygen-electrode (Hansatech, UK) in the presence of 0.4 mM 2,6-dichloro-p-benzoquinone (DCBQ) as an electron acceptor.

[2] = system: Cyt b559 in PSII; assay: Redox forms of Cyt b559 by stepwise reductive titration (absorption difference spectroscopy), reconstituted NaCl-washed PSII membranes; type: biochemical, spinach
Description: Hydroquinone-reduced minus ferricyanide-oxidized (1), ascorbate-reduced minus ferricyanide-oxidized (2), and dithionite-reduced minus ferricyanide-oxidized (3) difference spectra were used to estimate the amount of the HP, IP, and LP forms of Cyt b559, respectively. Each spectrum was an average of three independent measurements and normalized to the peak of the dithionite-reduced minus ferricyanide-oxidized difference spectrum. (B) Relative content of the HP, IP, and LP forms of Cyt b559 determined by stepwise reductive titration. Total amount of Cyt b559 is set as 100%. […] (*p < 0.05, Student’s t-test); n = 3, error bars = SEM.
PSII membranes, isolated from spinach leaves[56], were treated for 30 min with the buffer containing 1.5 M NaCl on ice to remove PsbP and PsbQ. […] In the control, MES buffer, without any peptide fragments, was used. After incubation for 1 h on ice, the reconstituted PSII samples were carried forward to determine the state of their redox forms of Cyt b559, oxygen-evolving activity, FTIR analysis and TL measurements. Where indicated, PSII samples were washed once, before the analysis, with buffer (25 mM MES-NaOH, pH 6.5, 5 mM NaCl, 5 mM CaCl2, 0.4 M sucrose).
PSII membranes were suspended at a Chl concentration of 75 μg ml^−1 in buffer (25 mM MES-NaOH, pH 6.5, 5 mM NaCl, 5 mM CaCl2, 0.4 M sucrose) and the different redox forms of Cyt b559 were determined at a wavelength of 559 nm, from the reduced minus oxidized difference absorption spectra between 520 and 580 nm, recorded as described previously[34][35][57] using a spectrophotometer equipped with a head-on photomultiplier tube (UV-2600; Shimadzu, Kyoto, Japan). Complete oxidation of Cyt b559 was achieved by treatment with 2 mM potassium ferricyanide (midpoint redox potential Em ~ 430 mV) followed by its stepwise reduction. The reduction of the HP form (Em ~ 400 mV), the IP form (Em ~ 200 mV), and the LP form (Em ~ 50 mV) of Cyt b559[7][58][59][60] were performed by adding 4 mM hydroquinone (Em ~ 280 mV), 5 mM sodium ascorbate (Em ~ 60 mV), and 10 mM sodium dithionite (Em ~ −660 mV) in a step-wise manner. The absorption difference at 559 nm, in difference spectra of hydroquinone-reduced minus ferricyanide-oxidized, ascorbate-reduced minus hydroquinone-reduced, and dithionite-reduced minus ascorbate-reduced Cyt b559, enable the content of HP, IP, and LP form of Cyt b559, to be deduced, respectively. Baselines were set by drawing a straight line between absorption differences at 540 and 580 nm.

[3] = system: OEC (Mn4CaO5 cluster) in PSII; assay: Light-induced S2/S1 FTIR difference spectroscopy; type: biochemical, spinach; settings: peptide:PSII 200:1, pH 6.0, 5 mM CaCl2, 5 mM NaCl, 10 °C, 1800–1200 cm^-1
Protocol: FTIR measurements were performed following the method reported previously[20][61] with some modifications. NaCl-washed PSII membranes were suspended (2.5 mg Chl ml^−1) in a buffer containing 4 mM MES-NaOH, 40 mM sucrose, 5 mM CaCl2, and 5 mM NaCl (pH 6.0). […] The resultant sample film was moderately hydrated by sealing the cell using another CaF2 plate and a silicone spacer (0.5 mm in thickness) enclosing 2 μl of 40% (v/v) glycerol solution without touching the sample. The sample temperature was adjusted to 10 °C by circulating cold water in a copper holder. Light-induced S2-minus-S1 difference spectra (S2/S1 spectra) were recorded using a spectrophotometer (VERTEX 80, Bruker Optics) equipped with an MCT detector (InfraRed D313-L) at 4 cm^−1 resolution (20, 61). A Ge filter to cut IR light at >2200 cm^−1 (Andover, 4.50ILP-25) was placed in the IR path in front of the sample to improve the signal-to-noise ratios of spectra as well as to block a He-Ne laser beam from the interferometer. Illumination was provided by a Q-switched Nd:YAG laser (INDI-40-10; 532 nm, ~ 7 ns full width at half-maximum, and ~ 7 mJ pulse^–1 cm^–2 at the sample surface; Spectra-Physics, UK). Single-beam spectra were recorded with 100 scans (~50-s accumulation) before and after single-flash illumination to calculate a difference spectrum, and the measurements were repeated 20 times with an interval of 25 min.

[4] = target: PsbE protein, the α subunit of Cytochrome b559 (spinach (endogenous in PSII membranes from spinach leaves)) (UniProt P69383)

Substance | Rate of oxygen evolution (in words) [1] | Relative content of the HP form of Cyt b559 ([2]; NaCl-washed PSII membranes reconstituted with PsbP proteins at 4:1 or peptides at 200:1 (to PSII), 1 h on ice, 25 mM MES-NaOH pH 6.5, 5 mM NaCl, 5 mM CaCl2, 0.4 M sucrose, 559 nm, total Cyt b559 = 100%, n = 3 (controls: intact 59.3, NaCl-washed 33.7)) | Relative content of the LP form of Cyt b559 ([2]; NaCl-washed PSII membranes reconstituted with PsbP proteins at 4:1 or peptides at 200:1 (to PSII), 1 h on ice, pH 6.5, total Cyt b559 = 100%, n = 3 (controls: intact 8.7, NaCl-washed 10.4)) | Relative content of the IP form of Cyt b559 ([2]; NaCl-washed PSII membranes reconstituted with PsbP proteins at 4:1 or peptides at 200:1 (to PSII), 1 h on ice, pH 6.5, total Cyt b559 = 100%, n = 3 (controls: intact 32.0, NaCl-washed 55.9)) | Restoration of HP Cyt b559 (in words) ([2]; reconstituted NaCl-washed PSII membranes, pH 6.5) | S2/S1 FTIR spectral intensity [3] | content of the HP form of Cyt b559 in NaCl-washed PSII membranes after reconstitution at 4:1 (PsbP:PSII); about 34% without reconstitution [4]
pN15-∆A^1: pN15 lacking its N-terminal Ala^1 (YGEAANVFGKPKKN-NH2; UniProt P12302 83-96, looked up, fragment) | none of these mutated pN15 fragments showed any inhibitory effect on oxygen evolution | 38.2% | 13.6% | 48.2% | This effect was not observed | moderate inhibitory effect | –
recombinant PsbP-WT protein from Spinacia oleracea (from UniProt P12302 82-267) (natural protein) | – | – | – | – | – | – | 58%
